Key:
Assay type in all cases: functional
[1] = Antiproliferative activity against human NCI-ADR-RES cells assessed as cell growth at 10^-5 M after 48 hrs by sulforhodamine B assay; conditions: read-out: Activity
[2] = system: NCI-H522; assay: Antiproliferative activity against human NCI-H522 cells assessed as cell growth at 10^-5 M after 48 hrs by sulforhodamine B assay; conditions: NCI-H522, 48 h, read-out: Activity
[3] = Cytotoxicity against human HCT116 cells assessed as growth inhibition at 100 uM after 2 days by MTT assay; conditions: HCT-116, 48 h, read-out: GI
[4] = system: SR; assay: Antiproliferative activity against human SR cells assessed as cell growth at 10^-5 M after 48 hrs by sulforhodamine B assay; conditions: read-out: Activity
[5] = Antiproliferative activity against human HCC2998 cells assessed as cell growth at 10^-5 M after 48 hrs by sulforhodamine B assay; conditions: HCC 2998, 48 h, read-out: Activity
[6] = Antiproliferative activity against human SW620 cells assessed as cell growth at 10^-5 M after 48 hrs by sulforhodamine B assay; conditions: SW-620, 48 h, read-out: Activity
[7] = system: SK-MEL-2; assay: Antiproliferative activity against human SK-MEL-2 cells assessed as cell growth at 10^-5 M after 48 hrs by sulforhodamine B assay; conditions: SK-MEL-2, 48 h, read-out: Activity
[8] = system: SN12C; assay: Antiproliferative activity against human SN12C cells assessed as cell growth at 10^-5 M after 48 hrs by sulforhodamine B assay; conditions: read-out: Activity
[9] = Antiproliferative activity against human SF295 cells assessed as cell growth at 10^-5 M after 48 hrs by sulforhodamine B assay; conditions: SF-295, 48 h, read-out: Activity
[10] = system: NCI-H460; assay: Antiproliferative activity against human NCI-H460 cells assessed as cell growth at 10^-5 M after 48 hrs by sulforhodamine B assay; conditions: NCI-H460, 48 h, read-out: Activity
[11] = Antiproliferative activity against human OVCAR5 cells assessed as cell growth at 10^-5 M after 48 hrs by sulforhodamine B assay; conditions: OVCAR-5, 48 h, read-out: Activity
[12] = system: K562; assay: Antiproliferative activity against human K562 cells assessed as cell growth at 10^-5 M after 48 hrs by sulforhodamine B assay; conditions: K562, 48 h, read-out: Activity
[13] = Cytotoxicity against human SKBR3 cells assessed as growth inhibition at 100 uM after 2 days by MTT assay; conditions: SK-BR-3, 48 h, read-out: GI
[14] = Antiproliferative activity against human HCT15 cells assessed as cell growth at 10^-5 M after 48 hrs by sulforhodamine B assay; conditions: HCT-15, 48 h, read-out: Activity
[15] = system: NCI-H322M; assay: Antiproliferative activity against human NCI-H322M cells assessed as cell growth at 10^-5 M after 48 hrs by sulforhodamine B assay; conditions: read-out: Activity
[16] = Antiproliferative activity against human HL-60(TB) cells assessed as cell growth at 10^-5 M after 48 hrs by sulforhodamine B assay; conditions: HL-60, 48 h, read-out: Activity
[17] = Antiproliferative activity against human SKOV3 cells assessed as cell growth at 10^-5 M after 48 hrs by sulforhodamine B assay; conditions: SK-OV-3, 48 h, read-out: Activity
[18] = Antiproliferative activity against human DU145 cells assessed as cell growth at 10^-5 M after 48 hrs by sulforhodamine B assay; conditions: DU-145, 48 h, read-out: Activity
[19] = Antiproliferative activity against human COLO205 cells assessed as cell growth at 10^-5 M after 48 hrs by sulforhodamine B assay; conditions: COLO 205, 48 h, read-out: Activity
[20] = Antiproliferative activity against human Hs 578T cells assessed as cell growth at 10^-5 M after 48 hrs by sulforhodamine B assay; conditions: read-out: Activity
[21] = Cytotoxicity against human HCT116 cells assessed as growth inhibition at 10 uM after 2 days by MTT assay; conditions: HCT-116, 48 h, read-out: GI
[22] = Cytotoxicity against human SKBR3 cells assessed as growth inhibition at 10 uM after 2 days by MTT assay; conditions: SK-BR-3, 48 h, read-out: GI
[23] = system: SK-MEL-28; assay: Antiproliferative activity against human SK-MEL-28 cells assessed as cell growth at 10^-5 M after 48 hrs by sulforhodamine B assay; conditions: SK-MEL-28, 48 h, read-out: Activity
[24] = Antiproliferative activity against human SNB75 cells assessed as cell growth at 10^-5 M after 48 hrs by sulforhodamine B assay; conditions: SNB-75, 48 h, read-out: Activity
[25] = Antiproliferative activity against human IGROV1 cells assessed as cell growth at 10^-5 M after 48 hrs by sulforhodamine B assay; conditions: IGROV-1, 48 h, read-out: Activity
[26] = Antiproliferative activity against human OVCAR3 cells assessed as cell growth at 10^-5 M after 48 hrs by sulforhodamine B assay; conditions: OVCAR-3, 48 h, read-out: Activity
[27] = Antiproliferative activity against human HOP92 cells assessed as cell growth at 10^-5 M after 48 hrs by sulforhodamine B assay; conditions: HOP-92, 48 h, read-out: Activity
[28] = Antiproliferative activity against human OVCAR8 cells assessed as cell growth at 10^-5 M after 48 hrs by sulforhodamine B assay; conditions: OVCAR-8, 48 h, read-out: Activity
[29] = Antiproliferative activity against human PC3 cells assessed as cell growth at 10^-5 M after 48 hrs by sulforhodamine B assay; conditions: PC-3, 48 h, read-out: Activity
[30] = system: MCF7; assay: Antiproliferative activity against human MCF7 cells assessed as cell growth at 10^-5 M after 48 hrs by sulforhodamine B assay; conditions: MCF7, 48 h, read-out: Activity
[31] = system: CCRF-CEM; assay: Antiproliferative activity against human CCRF-CEM cells assessed as cell growth at 10^-5 M after 48 hrs by sulforhodamine B assay; conditions: read-out: Activity
[32] = system: T47D; assay: Antiproliferative activity against human T47D cells assessed as cell growth at 10^-5 M after 48 hrs by sulforhodamine B assay; conditions: read-out: Activity
[33] = Antiproliferative activity against human Caki1 cells assessed as cell growth at 10^-5 M after 48 hrs by sulforhodamine B assay; conditions: CAKI-1, 48 h, read-out: Activity
[34] = Antiproliferative activity against human SNB19 cells assessed as cell growth at 10^-5 M after 48 hrs by sulforhodamine B assay; conditions: SNB-19, 48 h, read-out: Activity
[35] = system: SK-MEL-5; assay: Antiproliferative activity against human SK-MEL-5 cells assessed as cell growth at 10^-5 M after 48 hrs by sulforhodamine B assay; conditions: SK-MEL-5, 48 h, read-out: Activity
[36] = system: U-251; assay: Antiproliferative activity against human U251 cells assessed as cell growth at 10^-5 M after 48 hrs by sulforhodamine B assay; conditions: U-251, 48 h, read-out: Activity
[37] = Antiproliferative activity against human TK10 cells assessed as cell growth at 10^-5 M after 48 hrs by sulforhodamine B assay; conditions: TK-10, 48 h, read-out: Activity

Row | Compound | growth at 10 µM [1] [%] | growth at 10 µM [2] [%] | inhibition of growth at 100 µM [3] [%] | growth at 10 µM [4] [%] | growth at 10 µM [5] [%] | growth at 10 µM [6] [%] | growth at 10 µM [7] [%] | growth at 10 µM [8] [%] | growth at 10 µM [9] [%] | growth at 10 µM [10] [%] | growth at 10 µM [11] [%] | growth at 10 µM [12] [%] | inhibition of growth at 100 µM [13] [%] | growth at 10 µM [14] [%] | growth at 10 µM [15] [%] | growth at 10 µM [16] [%] | growth at 10 µM [17] [%] | growth at 10 µM [18] [%] | growth at 10 µM [19] [%] | growth at 10 µM [20] [%] | further results
1 | CNC(=O)c1cc(Oc2ccc3nc(NC(=O)c4cc(C(F)(F)F)cc(C(F)(F)F)c4)sc3c2)ccn1 | 15 | -6 | 76.9 | 5 | 39 | 42 | -19 | 6 | 1 | 14 | 32 | 7 | 80.4 | 19 | 18 | -47 | -10 | 16 | -9 | 6 | inhibition of growth at 10 µM [21]: 16.8%; inhibition of growth at 10 µM [22]: 8.56%; growth at 10 µM [23]: 22%; growth at 10 µM [24]: 10%; growth at 10 µM [25]: 27%; growth at 10 µM [26]: -19%; growth at 10 µM [27]: -11%; growth at 10 µM [28]: 8%; growth at 10 µM [29]: 5%; growth at 10 µM [30]: 17%; growth at 10 µM [31]: 13%; growth at 10 µM [32]: -4%; growth at 10 µM [33]: 2%; growth at 10 µM [34]: 16%; growth at 10 µM [35]: -66%; growth at 10 µM [36]: 12%; growth at 10 µM [37]: 8%
2 | CNC(=O)c1cc(Oc2ccc3nc(NC(=O)c4ccc5c(c4)OCCO5)sc3c2)ccn1 | 95.8 | 99.6 | 49.9 | 88.3 | 103 | 107 | 113 | 107 | 99.7 | 104 | 99.1 | 91.2 | 62.3 | 105 | 99 | 93.7 | 101 | 98.5 | 103 | 112 | inhibition of growth at 10 µM [21]: 10.5%; inhibition of growth at 10 µM [22]: 50.7%; growth at 10 µM [23]: 103%; growth at 10 µM [24]: 95.8%; growth at 10 µM [25]: 99.5%; growth at 10 µM [26]: 101%; growth at 10 µM [27]: 93.5%; growth at 10 µM [28]: 100%; growth at 10 µM [29]: 95.8%; growth at 10 µM [30]: 90.3%; growth at 10 µM [31]: 98.4%; growth at 10 µM [32]: 92.1%; growth at 10 µM [33]: 97.7%; growth at 10 µM [34]: 101%; growth at 10 µM [35]: 95.8%; growth at 10 µM [36]: 45.5%; growth at 10 µM [37]: 105%
3 | CNC(=O)c1cc(Oc2ccc3nc(NC(=O)c4cccc(F)n4)sc3c2)ccn1 | 88.8 | 69.8 | 55.5 | 55.9 | 114 | 105 | 110 | 84.9 | 89.1 | 89.5 | 128 | 77.5 | 89.4 | 92.2 | 92.8 | 78.2 | 116 | 99.2 | 105 | 92.7 | inhibition of growth at 10 µM [21]: 10.8%; inhibition of growth at 10 µM [22]: 12.5%; growth at 10 µM [23]: 105%; growth at 10 µM [24]: 105%; growth at 10 µM [25]: 101%; growth at 10 µM [26]: 95.5%; growth at 10 µM [27]: 81.4%; growth at 10 µM [28]: 85%; growth at 10 µM [29]: 73%; growth at 10 µM [30]: 86.3%; growth at 10 µM [31]: 64.7%; growth at 10 µM [32]: 84.8%; growth at 10 µM [33]: 83%; growth at 10 µM [34]: 88.6%; growth at 10 µM [35]: 71.8%; growth at 10 µM [36]: 79.9%; growth at 10 µM [37]: 133%

From ChEMBL document CHEMBL3797052 (Eur J Med Chem, 2016)
